Results reported in publication PMC11677527, “Predicting Pharmacokinetics of Active Constituents in Spatholobi caulis by Using Physiologically Based Pharmacokinetic Models” (Pharmaceuticals, 2024).
Like-named read-outs stand apart in the source and are kept apart here.

Assays:
Caco-2 cell monolayer = system: Caco-2 cell monolayer; parameters: method as in PMID 36680806, PMID 26501241; details: Caco-2 cell monolayer model; cited from earlier work
[1] = parameters: method as in PMID 34303214; details: rats, p.o. SPC 30 g crude drug/kg; doses of 1-4: 0.062, 0.11, 0.71, 1.31 mg/kg; cited from earlier work
[2] = Verification pharmacokinetic experiment in rats, SPC 60 g crude drug/kg by gavage, UFLC-MS/MS, DAS 2.0; type: in vivo, rat
Procedure: To validate the accuracy of PBPK models in predicting the pharmacokinetics of SPC constituents at different oral doses, the pharmacokinetic behavior of these four constituents from SPC in rats were analyzed by UFLC-MS/MS. The parameters were calculated using Drug and Statistics Software version 2.0, and then these validated values (Val.) were used to check the accuracy of the Calc. values and evaluated by FE.
The pharmacokinetic fitting results of rats given 60 g crude drug/kg body weight of SPC by gavage were verified by experiments. The verification experiment was conducted according to our previous pharmacokinetic study. In brief, 1.5 mL suspension of SPC was given to rats by oral administration; 300 μL blood samples from orbital venous at 0.083, 0.25, 0.5, 0.75, 1.0, 1.5, 2, 3, 4, 6, 8, and 12 h were collected and pretreated with heparin sodium. After centrifugation, the plasma samples were obtained and further processed for subsequent detection by UFLC-MS/MS; the detailed analysis method is shown in Supplementary Data (Table S1 and Figure S1). The concentration-time curve of each compound was gained, and the pharmacokinetic parameters were calculated using DAS 2.0 software (DAS 2.0, Mathematical Pharmacology Professional Committee of China, Shanghai, China). The results of these four constituents were compared with the PBPK parameters predicted in rats at an oral dose of 60 g crude drug/kg body weight of SPC.
1. The instrument and analytical conditions of UFLC-MS/MS method
4 constituents (1. 3′-methoxydadizein; 2. 8-O-methylretusin; 3. Daidzin; and 4. […]
The internal standard (IS) carbamazepine with a purity of more than 99 % was purchased from Beijing JK-chemical technology Co. Ltd., (Beijing China). Heparin sodium was gained from Tianjin biochemical pharmaceutical Co. Ltd, (Tianjin, China).
Ammonium acetate of HPLC grade, methanol and acetonitrile of LC-MS grade were purchased from Sigma (LOT# BCBK6717V, sigma-aldrich, Co., MO, USA) and Fisher (Fisher Corp., Fair lawn, NJ, USA) respectively. The experimental ultrapure water was prepared by Millipore Milli-Q ultrapure water preparation apparatus (Millipore Sigma, […]
The detailed information of Shimadzu UFLC-MS/MS 8050 liquid mass system equipped with Nexera X2UFLC liquid chromatography system and 8050 triple quadrupole mass spectrometers with an electrospray ionization source were listed in our previous study. The supporting LabSolution workstation was used for data […]
The separation without superposition of analytes in plasma sample was achieved on a Kinetex® C18 chromatographic column (100mm×2.1mm i.d.; 2.6 μm, 100 Å; Phenomenex, Inc., Torrance, CA, USA) assembled with a Phenomenex p/n AJ0-9000 C18 protection column. The mobile phase was consisted of 0.5 mM ammonium acetate in water (A) and ACN (B). The gradient elution program was selected ultimately as […]
95 % B (18.7–22 min). Column and automatic sampler temperature were set as 30 °C and 4 °C respectively. The flow rate of mobile phase was 0.35 mL/min while sample injection volume was 4 μL.
Multiple reaction monitoring (MRM) of positive or negative modes were used as scanning modes for the analytes and IS. Other essential parameters were successively optimized as: Nebulizing gas flow, 3 L/min; Heating gas flow, 10 L/min; Drying gas flow, 10 L/min; Interface temperature, 300 °C; DL temperature, 250 °C; Interface and detector voltage were each set as 3.0 kV and 1.8 kV. The detection parameters such as retention time (RT), dwell time (DT), quadrupole 1 pre-rod bias (Q1), collision energy […]
Table S1 The retention time and ion equivalent parameters of 4 constituents in rat […]
Constituents Retention Precursor Precursor Product time Pre energy Pre time (min) ion species ion ion (msec) Bias (V) Bias

[3] = Observed pharmacokinetics in rats after oral SPC (previous study); type: in vivo, rat; details: p.o. SPC
[4] = compartment model parameters, DAS 2.0, rats p.o. SPC 60 g crude drug/kg, Mean, 5 rats
[5] = statistical moment parameters, DAS 2.0, rats p.o. SPC 60 g crude drug/kg, Mean, 5 rats
[6] = statistical moment parameters, DAS 2.0, rats p.o. SPC 60 g crude drug/kg, Mean, 5 rats, in µg·h²/mL

COc1ccc(-c2coc3c(OC)c(O)ccc3c2=O)cc1 [Constituent 2, 8-O-methylretusin]
Papp (Caco-2 cell monolayer): 2.48e-05 cm/s
AUC0→t Obs. [1]: 9.7 ng·h/mL
AUC0→∞ Obs. [1]: 0.0115 µg·h/mL
Cmax Obs. [1]: 0.0136 µg/mL
K10 [2, 4]: 6.671 h⁻¹
K12 [2, 4]: 0.394 h⁻¹
K21 [2, 4]: 0.474 h⁻¹
Ka [2, 4]: 2.056 h⁻¹
Tlag [2, 4]: 0 h
V1/F [2, 4]: 12.043 L/kg
t1/2Ka [2, 4]: 20.246 h
t1/2α [2, 4]: 34.861 h
concentration at 0.083 h ([2]; rat, plasma, oral, time 0.083 h, rats p.o. SPC 60 g crude drug/kg, doses of 1-4: 0.124, 0.22, 1.4, 2.62 mg/kg, 5 rats): 9 ng/mL
concentration at 0.25 h ([2]; rat, plasma, oral, time 0.25 h, rats p.o. SPC 60 g crude drug/kg, doses of 1-4: 0.124, 0.22, 1.4, 2.62 mg/kg, 5 rats): 22.9 ng/mL
concentration at 0.5 h ([2]; rat, plasma, oral, time 0.5 h, rats p.o. SPC 60 g crude drug/kg, doses of 1-4: 0.124, 0.22, 1.4, 2.62 mg/kg, 5 rats): 12.3 ng/mL
concentration at 0.75 h ([2]; rat, plasma, oral, time 0.75 h, rats p.o. SPC 60 g crude drug/kg, doses of 1-4: 0.124, 0.22, 1.4, 2.62 mg/kg, 5 rats): 5.23 ng/mL
concentration at 1 h ([2]; rat, plasma, oral, time 1 h, rats p.o. SPC 60 g crude drug/kg, doses of 1-4: 0.124, 0.22, 1.4, 2.62 mg/kg, 5 rats): 3.33 ng/mL
concentration at 1.5 h ([2]; rat, plasma, oral, time 1.5 h, rats p.o. SPC 60 g crude drug/kg, doses of 1-4: 0.124, 0.22, 1.4, 2.62 mg/kg, 5 rats): 1.97 ng/mL
concentration at 2 h ([2]; rat, plasma, oral, time 2 h, rats p.o. SPC 60 g crude drug/kg, doses of 1-4: 0.124, 0.22, 1.4, 2.62 mg/kg, 5 rats): 0.809 ng/mL
concentration at 3 h ([2]; rat, plasma, oral, time 3 h, rats p.o. SPC 60 g crude drug/kg, doses of 1-4: 0.124, 0.22, 1.4, 2.62 mg/kg, 5 rats): 0.809 ng/mL
concentration at 4 h ([2]; rat, plasma, oral, time 4 h, rats p.o. SPC 60 g crude drug/kg, doses of 1-4: 0.124, 0.22, 1.4, 2.62 mg/kg, 5 rats): 0.409 ng/mL
concentration at 6 h ([2]; rat, plasma, oral, time 6 h, rats p.o. SPC 60 g crude drug/kg, doses of 1-4: 0.124, 0.22, 1.4, 2.62 mg/kg, 5 rats): 0.445 ng/mL
concentration at 8 h ([2]; rat, plasma, oral, time 8 h, rats p.o. SPC 60 g crude drug/kg, doses of 1-4: 0.124, 0.22, 1.4, 2.62 mg/kg, 5 rats): 0.161 ng/mL
AUC(0-t) ([2]; rat, plasma, po, 0.22 mg/kg, compartment model parameters, DAS 2.0, rats p.o. SPC 60 g crude drug/kg, Mean, 5 rats, read-out: AUC(0-t)): 19.8 ng·h/mL
AUC(0-inf) ([2]; rat, plasma, po, 0.22 mg/kg, compartment model parameters, DAS 2.0, rats p.o. SPC 60 g crude drug/kg, Mean, 5 rats, read-out: AUC(0-∞)): 22.4 ng·h/mL
CL/F ([2]; rat, plasma, po, 0.22 mg/kg, compartment model parameters, DAS 2.0, rats p.o. SPC 60 g crude drug/kg, Mean, 5 rats, read-out: CL/F (converted)): 209 mL/min/kg
half-life ([2]; rat, plasma, po, 0.22 mg/kg, compartment model parameters, DAS 2.0, rats p.o. SPC 60 g crude drug/kg, Mean, 5 rats, read-out: t1/2β (converted)): 2130 min
AUC(0-t) ([2]; rat, plasma, po, 0.22 mg/kg, statistical moment parameters, DAS 2.0, rats p.o. SPC 60 g crude drug/kg, Mean, 5 rats, read-out: AUC(0-t)): 15.3 ng·h/mL
AUC(0-inf) ([2]; rat, plasma, po, 0.22 mg/kg, statistical moment parameters, DAS 2.0, rats p.o. SPC 60 g crude drug/kg, Mean, 5 rats, read-out: AUC(0-∞)): 15.5 ng·h/mL
CL/F ([2]; rat, plasma, po, 0.22 mg/kg, statistical moment parameters, DAS 2.0, rats p.o. SPC 60 g crude drug/kg, Mean, 5 rats, read-out: CLz/F (converted)): 238 mL/min/kg
Cmax ([2]; rat, plasma, po, 0.22 mg/kg, statistical moment parameters, DAS 2.0, rats p.o. SPC 60 g crude drug/kg, Mean, 5 rats, read-out: Cmax): 25.3 ng/mL
MRT last ([2]; rat, plasma, po, 0.22 mg/kg, statistical moment parameters, DAS 2.0, rats p.o. SPC 60 g crude drug/kg, Mean, 5 rats, read-out: MRT(0-t)): 1.01 h
MRT inf ([2]; rat, plasma, po, 0.22 mg/kg, statistical moment parameters, DAS 2.0, rats p.o. SPC 60 g crude drug/kg, Mean, 5 rats, read-out: MRT(0-∞)): 1.3 h
Tmax ([2]; rat, plasma, po, 0.22 mg/kg, statistical moment parameters, DAS 2.0, rats p.o. SPC 60 g crude drug/kg, Mean, 5 rats, read-out: Tmax): 15 min
Vd/F ([2]; rat, plasma, po, 0.22 mg/kg, statistical moment parameters, DAS 2.0, rats p.o. SPC 60 g crude drug/kg, Mean, 5 rats, read-out: Vz/F): 22.1 L/kg
half-life ([2]; rat, plasma, po, 0.22 mg/kg, statistical moment parameters, DAS 2.0, rats p.o. SPC 60 g crude drug/kg, Mean, 5 rats, read-out: t1/2z (converted)): 64 min
AUC(0-t) ([2]; rat, plasma, po, 2.62 mg/kg, rats, p.o. SPC 60 g crude drug/kg, doses of 1-4: 0.124, 0.22, 1.42, 2.62 mg/kg, n = 5, read-out: AUC0→t Val.): 15.3 ng·h/mL
AUC(0-inf) ([2]; rat, plasma, po, 2.62 mg/kg, rats, p.o. SPC 60 g crude drug/kg, doses of 1-4: 0.124, 0.22, 1.42, 2.62 mg/kg, n = 5, read-out: AUC0→∞ Val.): 15.5 ng·h/mL
Tmax ([2]; rat, plasma, po, rats, p.o. SPC 60 g crude drug/kg, doses of 1-4: 0.124, 0.22, 1.42, 2.62 mg/kg, n = 5, read-out: Tmax Val.): 15 min
Cz [2, 5]: 0.107 µg/L
VRT(0-t) [2, 5]: 1.65 h^2
VRT(0-∞) [2, 5]: 3.316 h^2
elimination rate constant [2, 5]: 0.675 h⁻¹
AUMC(0-t) [2, 6]: 15.37
AUMC(0-∞) [2, 6]: 20.163
time of slight secondary absorption peak [3]: 3 h
